Assay results as given in patent US20260224582A1, “Heterobicyclic amides as inhibitors of CD38” (Cerevance, Inc., priority 2022, published 2026).
Read-outs that look alike come from different tables or passages of the source.

Experiments:
Recombinant mouse CD38 = molecular target: T1, Recombinant mouse CD38 (Mus musculus, UniProt P56528); assay: Mouse CD38 hydrolase assay (fluorescence-based, ε-NAD substrate); format: biochemical; conditions: recombinant mouse CD38 0.4 nM, 12 μM ε-NAD, 30 min preincubation at 25° C.
T1 sequence (P56528 1-304): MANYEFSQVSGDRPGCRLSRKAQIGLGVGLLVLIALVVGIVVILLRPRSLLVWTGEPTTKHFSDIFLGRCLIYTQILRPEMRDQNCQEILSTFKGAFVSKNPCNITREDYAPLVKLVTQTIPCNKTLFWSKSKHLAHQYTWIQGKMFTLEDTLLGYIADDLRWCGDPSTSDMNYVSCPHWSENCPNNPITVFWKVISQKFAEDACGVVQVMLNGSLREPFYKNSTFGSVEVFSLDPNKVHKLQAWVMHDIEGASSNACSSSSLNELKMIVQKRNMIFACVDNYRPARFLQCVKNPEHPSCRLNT
Outline: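 Recombinant mouse CD38 (0.4 nM) preincubated with compound 30 min at 25° C in PBS without Ca/Mg, 0.005% BSA, pH 7.4, then 12 μM ε-NAD added. Fluorescence (ex 300/em 410 nm) read at 0 and 6 min, difference used. IC50 from 10-point half-log curve, four-parameter fit, normalised to tool-inhibitor low control.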

[1] = PK brain permeability after single oral gavage; format: in vivo, C57BL/6 mice; conditions: mice, 10 mg/kg oral, 2 hours post dose; for concentration at 2 h / Kp at 2 h: male, C57BL/6, mouse; for concentration at 2 h: po, 10 mg/kg; for Kp at 2 h: read-out: Kpu, u (unbound partitioning coefficient, Cb,u to Cp,u); for brain permeability (in words): statement on Table 3
Procedure: The distribution of compounds into the brain in vivo was determined in C57BL/6 mice following single oral (po) gavage administration.
Test compounds were formulated at 1 mg/mL in 0.5% HPMC E4M, 0.2% Tween 80 in water to achieve solutions or homogenous suspensions suitable for po administration. Formulations were administered to 3 male C57BL/6 mice at a volume of 10 mL/kg resulting in a dose level of 10 mg/kg. Blood samples were collected at 1 and 2 hours post dose into tubes containing K2EDTA as anticoagulant, processed to plasma and stored at −60° C. or lower until LC-MS/MS analysis. Brains were harvested 2 hours post dose, rinsed with saline, dried, weighed and homogenised under ice cold conditions. Brain homogenates were stored at −60° C. or lower until LC-MS/MS analysis.
Dose formulation concentrations were verified using a LC-UV or LC-MS/MS method. Test compound concentrations in plasma and brain homogenate were quantitatively determined using LC-MS/MS methods developed in individual matrices against calibration curves with QC samples included and acceptance criteria as per CRO SOPs. Concentrations in brain homogenate were corrected for the dilution factor used to prepare the homogenate to give concentrations in whole brain tissue.
Plasma and brain concentration versus time data were reported and plotted in excel. The brain to plasma ratio at 2 hours post dose was calculated for each animal using the following equation:
Brain: plasma=brain concentration (ng/g) at 2 h/plasma concentration (ng/ml) at 2 h As only unbound test compound is available to exert an effect on the target, unbound plasma (Cp,u) and unbound brain (Cb,u) concentrations were calculated by correcting the total concentrations for the unbound fraction in plasma (fu,p) or brain (fu,b) determined from in vitro plasma protein or brain tissue binding assays using the following equations: […]
The unbound partitioning coefficient (Kpu,u) was then calculated based on the ratio of Cb,u to Cp,u using the following equation: […]
In these studies, mice were orally administrated a 10 mg/kg dose and sacrificed 2 hours post dose and tissue samples (brain homogenate and plasma) were analyzed subsequently as described above.

[2] = brain, read-out: total brain conc.
[3] = brain, total corrected for unbound fraction in brain, read-out: free brain conc.
[4] = plasma, read-out: total plasma conc.
[5] = plasma, total corrected for unbound fraction in plasma, read-out: free plasma conc.

| SMILES | IC50 (Recombinant mouse CD38) [µM] | concentration at 2 h [1, 2] [nM] | concentration at 2 h [1, 3] [nM] | Kp at 2 h ([1]; brain) | concentration at 2 h [1, 4] [nM] | concentration at 2 h [1, 5] [nM] | brain permeability (in words) [1] |
| --- | --- | --- | --- | --- | --- | --- | --- |
| O=C(N[C@H]1CC[C@H](N2CCC(F)(F)C2)CC1)c1nc(-n2ccnc2)nn2cccc12 [Example 12, N-((1r,4r)-4-(3,3-difluoropyrrolidin-1-yl)cyclohexyl)-2-(1H-imidazol-1-yl)pyrrolo[2,1-f][1,2,4]triazine-4-carboxamide] | ≤ 0.04 | 8370 | 575 | 0.79 | 12600 | 788 | good brain permeability |
| O=C(N[C@H]1CC[C@H](NCC(F)(F)F)CC1)c1cn2ncnc2c(-n2ccnc2)n1 [Example 20, 8-(1H-imidazol-1-yl)-N-((1r,4r)-4-((2,2,2-trifluoroethyl)amino)cyclohexyl)-[1,2,4]triazolo[1,5-a]pyrazine-6-carboxamide] | ≤ 0.04 | 1420 | 481 | 0.18 | 17900 | 2630 | good brain permeability |
| O=C(N[C@H]1CC[C@H](NCC(F)(F)F)CC1)c1cn2nccc2c(-n2ccnc2)n1 [Example 21, 4-(1H-imidazol-1-yl)-N-((1r,4r)-4-((2,2,2-trifluoroethyl)amino)cyclohexyl)pyrazolo[1,5-a]pyrazine-6-carboxamide] | ≤ 0.04 | 1500 | 507 | 0.2 | 8220 | 2470 | good brain permeability |
| O=C(N[C@H]1CC[C@H](N2CCC(F)(F)C2)CC1)c1cn2ccnc2c(-n2ccnc2)n1 [Example 41, N-((1r,4r)-4-(3,3-difluoropyrrolidin-1-yl)cyclohexyl)-8-(1H-imidazol-1-yl) imidazo[1,2-a]pyrazine-6-carboxamide] | ≤ 0.04 | 1580 | 241 | 0.11 | 10600 | 2160 | good brain permeability |
| O=C(N[C@H]1CC[C@H](N2CCC(F)(F)C2)CC1)c1cn2ncnc2c(-n2ccnc2)n1 [Example 48, N-((1r,4r)-4-(3,3-difluoropyrrolidin-1-yl)cyclohexyl)-8-(1H-imidazol-1-yl)-[1,2,4]triazolo[1,5-a]pyrazine-6-carboxamide] | ≤ 0.04 | 2570 | 403 | 0.2 | 8000 | 1980 | good brain permeability |

Results, then the molecule that gave them:

| IC50 (Recombinant mouse CD38) [µM] | concentration at 2 h [1, 2] [nM] | concentration at 2 h [1, 3] [nM] | Kp at 2 h ([1]; brain) | concentration at 2 h [1, 4] [nM] | concentration at 2 h [1, 5] [nM] | brain permeability (in words) [1] | SMILES |
| --- | --- | --- | --- | --- | --- | --- | --- |
| ≤ 0.04 | 572 | 236 | 0.09 | 6310 | 2540 | good brain permeability | O=C(N[C@H]1CC[C@H](NCC(F)(F)F)CC1)c1nc(-n2ccnc2)nc2ncccc12 [Example 4, 2-(1H-imidazol-1-yl)-N-((1r,4r)-4-((2,2,2-trifluoroethyl)amino)cyclohexyl)pyrido[2,3-d]pyrimidine-4-carboxamide] |
| ≤ 0.04 | 3380 | 189 | 0.23 | 3660 | 809 | good brain permeability | O=C(N[C@H]1CC[C@H](N2CC[C@H](F)C2)CC1)c1nc(-n2ccnc2)nn2cccc12 [Example 13, N-((1S,4r)-4-((S)-3-fluoropyrrolidin-1-yl)cyclohexyl)-2-(1H-imidazol-1-yl)pyrrolo[2,1-f][1,2,4]triazine-4-carboxamide] |
| ≤ 0.04 | 3320 | 181 | 0.19 | 3930 | 959 | good brain permeability | O=C(N[C@H]1CC[C@H](N2CC[C@@H](F)C2)CC1)c1nc(-n2ccnc2)nn2cccc12 [Example 14, N-((1R,4r)-4-((R)-3-fluoropyrrolidin-1-yl)cyclohexyl)-2-(1H-imidazol-1-yl)pyrrolo[2,1-f][1,2,4]triazine-4-carboxamide] |
| ≤ 0.04 | 864 | 218 | 0.22 | 5010 | 954 | good brain permeability | O=C(N[C@H]1CC[C@H](NCC(F)(F)F)CC1)c1cn2ccnc2c(-n2ccnc2)n1 [Example 19, 8-(1H-imidazol-1-yl)-N-((1r,4r)-4-((2,2,2-trifluoroethyl)amino)cyclohexyl) imidazo[1,2-a]pyrazine-6-carboxamide] |
| ≤ 0.04 | 4920 | 319 | 0.39 | 19100 | 840 | good brain permeability | O=C(N[C@H]1CC[C@H](NCC(F)(F)F)CC1)c1nc(-n2ccnc2)nn2cccc12 [Example 29, 2-(1H-imidazol-1-yl)-N-((1r,4r)-4-((2,2,2-trifluoroethyl)amino)cyclohexyl)pyrrolo[2,1-f][1,2,4]triazine-4-carboxamide] |
| ≤ 0.04 | 2160 | 555 | 0.16 | 9340 | 3490 | good brain permeability | O=C(N[C@H]1CC[C@H](N2CC(F)(F)C2)CC1)c1cn2ncnc2c(-n2ccnc2)n1 [Example 45, N-((1r,4r)-4-(3,3-difluoroazetidin-1-yl)cyclohexyl)-8-(1H-imidazol-1-yl)-[1,2,4]triazolo[1,5-a]pyrazine-6-carboxamide] |
